These results are taken from patent publication EP2792360A1, “(1aR,12bS)-8-cyclohexyl-11-fluoro-N-((1-methylcyclopropyl)sulfonyl)-1a-((3-methyl-3,8-diazabicyclo[3.2.1]oct-8-yl)carbonyl)-1,1a,2,2b-tetrahydrocyclopropa[d]indolo[2,1-a][2]benzazepine-5-carboxamide for use in treating HCV” (IP Gesellschaft für Management mbH, priority 2013, dated 2014).

≈ marks a conversion by molar mass, not a printed value.

Series [1] is described as follows: Hygroscopicity of solid forms of compound of formula (IV) (Ph. Eur. classification). The series is classed as physicochemical. The protocol: For the thermogravimetric analyses, approx. 5 - 10 mg of sample were placed in aluminum pans, accurately weighed and hermetically closed with perforation lids. […] The samples were then heated under a flow of nitrogen of about 50 mL/min using a heating rate of 5 K/min. The term "micronization" denotes a process whereby the particle size of a solid material is diminished to a d50 value of less than IOµm by the aid of a suitable method, such as milling, bashing or grinding. […] The term "anti-solvent crystallization" denotes a process wherein supers aturation and as a result thereof crystallisation is achieved by addition of an antisolvent to the product solution. The term "ambient conditions" denotes conditions as experienced in a standard laboratory, e.g. atmospheric pressure, air, ambient temperature between 18 °C and 28 °C, humidity between 30 %rH and 80 %rH. The term "hygroscopicity" describes the ability of a solid material to adsorb moisture. The hygroscopicity of a given API is characterized [European Pharmacopoeia - 6th Edition (2008), Chapter 5.11) by the increase in mass when the relative humidity is raised from 0 %rH to 90 %rH: o non-hygroscopic: weight increase Am < 0.2%; o slightly hygroscopic: weight increase 0.2% < Am < 2.0%; o hygroscopic: weight increase 2.0% < Am < 15.0%; o very hygroscopic: weight increase Am > 15.0%; o deliquescent: sufficient water is adsorbed to form a liquid. The IUPAC lamda convention (W.H. Powell, Pure & Appl. Chem. […] The bonding number "n" of a heteroatom is the sum of the total number of valence bonds to adjacent atoms, if any, and the number of attached hydrogen atoms. The bonding number of a heteroatom is standard when it has the value given in the following table: n=4: C, Si, Ge, Sn, Pb; n=3 B, N, P, As, Sb, Bi, n=2: O, S, Se, Te, Po; n=l; F, CI, Br, I, At. A nonstandard bonding number of a (neutral) heteroatom is indicated by the symbol "λη", where "n" is the bonding number. […]

A short description of series [2]: Solid form stability of forms of compound of formula (IV) (Temperature / Humidity Controlled XRPD, storage, suspension). The series is classed as physicochemical. The protocol: The term"XRPD" denotes the analytical method of X-Ray Powder Diffraction. XRPD patterns were recorded at ambient conditions in transmission geometry with a STOE STADI P diffractometer (Cu K alpha radiation source, primary monochromator, position sensitive detector, angular range 3° to 42° 2Theta, approximately 60 minutes total measurement time). The repeatability of the angular values is in the range of 2Theta ±0.2°. The term "approximately" given in combination with an angular value denotes the repeatability which is in the range of 2Theta ±0.2°. The samples were prepared and analyzed without further processing (e.g. grinding or sieving) of the substance. The relative XRPD peak intensity is dependent upon many factors such as structure factor, temperature factor, crystallinity, polarization factor, multiplicity, and Lorentz factor. Relative intensities may vary considerably from one measurement to another due to preferred orientation effects. Humidity Controlled XRPD analyses were performed in reflection geometry with a Siemens D5000 Diffractometer (Cu radiation source, Ni K beta filter, Scintillation detector, angular range 3° to 42° 2Theta, approximately 180 minutes total measurement time per humidity level). The diffractometer is equipped with an MRI (Materials Research Instruments) humidity chamber. The humidity within the chamber is adjusted with an ANSYCO humidity controller (SYCOS H-HOT). For single crystal structure analysis a single crystal sample was mounted in a nylon loop on a goniometer and measured at ambient conditions. Alternatively, the crystal was cooled in a nitrogen stream during measurement. Data were collected on a GEMINI R Ultra diffractometer from Oxford Diffraction. Cu-radiation of 1.54 A wavelength was used for data collection. Data was processed with the Oxford Diffraction CRYSALIS software. The crystal structure was solved and refined with standard crystallographic software. In this case the program ShelXTL from Bruker AXS (Karlsruhe) was used. The abbreviation "FWHM" denotes the full width at half maximum, which is a width of a peak (e.g. appearing in a spectrum, particularly in an XRPD pattern) at its half height. The term "sharp Bragg diffraction peak" in connection with X-ray diffraction patterns denotes a peak which is observed if Bragg' s law of diffraction is fulfilled. Generally, the FWHM of a sharp Bragg diffraction peak is less than 0.5° 2-theta. The term "amorphous halo" in connection with X-ray diffraction patterns denotes an approximately bell- shaped diffraction maximum in the X-ray powder diffraction pattern of an amorphous material. The FWHM of an amorphous halo is on principle larger than the FWHM of the peak of crystalline material. The terms "FTIR" and "IR" denote the analytical method of infrared spectroscopy. The IR-spectra of the samples are recorded as film of a Nujol suspension consisting of approx. 5 mg of sample and approx. 5 mg of Nujol (mineral oil) between two sodium chloride plates (cross section 13 mm) in transmittance with a FTIR- spectrometer. The spectra were recorded in spectral range between 4000 cm"1 and 600 cm"1, resolution 2 cm"1, and 300 coadded scans on a Magna 860 (thermo/Nicolet) equipped with a DTGS detector. The term "Raman" denotes the analytical method of Raman spectroscopy. For recording Raman spectra, the samples were spread on a glass slide. Raman spectra were recorded in the range of 150-3800 cm"1 with an ARAMIS (HoribaJobinYvon) Raman microscope equipped with a Peltier cooled CCD detector, at excitation of 633 nm, a 1200 1/mm grating, a x50 objective and with 3 exposures of 3s, or 7s for weak Raman scatterers. The term "DSC" denotes the analytical method of Differential Scanning Calorimetry. DSC thermograms were recorded using a Mettler-Toledo™ differential scanning calorimeter DSC820, DSC821 or DSC1 with a FRS05 sensor. […]

A short description of series [3]: Biopharmaceutical classification system (BCS). The series is classed as physicochemical. From the text: The compound of formula (IV), its manufacture, its pharmacological activity as inverse agonists of the GABA A a5 receptor, and its use for the treatment, prevention and/or delay of progression of various central nervous system (CNS) conditions have been described in WO 2009/071476. […] Res. (1995) 12:413-420]. […] If anhydrous solid forms of the compound of formula (IV), as described in WO 2009/071476, are selected for clinical development, a physical instability in terms of hydrate formation during pharmaceutical processing and/or storage of the drug product is possible. […] Further, the discovery of new solid forms of an API (polymorphs, solvates, salts, inclusion complexes) enlarges the repertoire of materials that a formulation scientist has available with which to design a pharmaceutical dosage form of a drug with a targeted release profile or other desired characteristics. Therefore, there is a need to find more solid forms of the compound of formula (IV). […] The instant invention provides novel solid forms of the compound of formula (IV) with improved solubility, dissolution rate, oral bioavailability as well as increased stability of the API. In addition, the instant invention provides novel inclusion complexes of compounds of formula (IV) with cyclodextrins. Such inclusion complexes further feature improved dissolution rate and bioavailability. […]

Another series can be described thus: physchem. The procedure:
Anal. Chem. Instrum. […] Drug Delivery Rev. […] The binding constant (K) of the gamma-CD inclusion complex ({drug4g}) was calculated from the initial straight line portion of the phase solubility diagram by linear regression, according to the following equation [T. Higuchi et al., Adv. Anal. Chem. Instrum.

Series [4] is described as follows: Salt form assessment of the tosylate salt (chemical stability, disassociation, aqueous solubility). The series is classed as physicochemical.

As to `Cc1onc(-c2ccc(F)cc2)c1COc1ccc(C(=O)N2CCS(=O)(=O)CC2)cn1` [Amorphous Form ({drug4f}), (1,1-dioxo-1lambda6-thiomorpholin-4-yl)-{6-[3-(4-fluoro-phenyl)-5-methyl-isoxazol-4-ylmethoxy]-pyridin-3-yl]-methanone], the hygroscopicity entry in series [1] was “slightly hygroscopic (slightly hygroscopic: weight increase 0.2% < Am < 2.0%)”. In series [2] (Form C: prolonged period, e.g. 30 days), the “phase change upon storage at 100 rH at ambient temperature” value was “no phase transformation has been observed”.
Turning to `Cc1onc(-c2ccc(F)cc2)c1COc1ccc(C(=O)N2CCS(=O)(=O)CC2)cn1.O` [Form B ({drug4b}), (1,1-dioxo-1lambda6-thiomorpholin-4-yl)-{6-[3-(4-fluoro-phenyl)-5-methyl-isoxazol-4-ylmethoxy]-pyridin-3-yl]-methanone monohydrate], the hygroscopicity result in series [1] is listed as “hygroscopic (hygroscopic: weight increase 2.0% < Am < 15.0%)”. In addition, the “heating temperature at which the form transforms into Form A” value in series [2] was greater than 100 °C. Besides, the “stability as compared to Form A” value in series [2] (in the presence of humidity, e.g. at ambient conditions) is “substantially increased”.
Turning to `Cc1onc(-c2ccc(F)cc2)c1COc1ccc(C(=O)N2CCS(=O)(=O)CC2)cn1` [compound of formula (IV), (1,1-dioxo-1lambda6-thiomorpholin-4-yl)-{6-[3-(4-fluoro-phenyl)-5-methyl-isoxazol-4-ylmethoxy]-pyridin-3-yl]-methanone], in series [3], the aqueous solubility entry is “low aqueous solubility” and the biopharmaceutical classification result was “BCS 2”. In “physchem”, the “type of phase solubility diagram with gamma-cyclodextrin” value was “Bs-type behavior”.
As a reminder, the solubility is how much of the substance goes into solution per volume. The low end stands for little dissolved substance, the high end for much dissolved substance. As to `OC[C@H]1O[C@@H]2O[C@H]3[C@H](O)[C@@H](O)[C@@H](O[C@H]4[C@H](O)[C@@H](O)[C@@H](O[C@H]5[C@H](O)[C@@H](O)[C@@H](O[C@H]6[C@H](O)[C@@H](O)[C@@H](O[C@H]7[C@H](O)[C@@H](O)[C@@H](O[C@H]8[C@H](O)[C@@H](O)[C@@H](O[C@H]9[C@H](O)[C@@H](O)[C@@H](O[C@H]1[C@H](O)[C@H]2O)O[C@@H]9CO)O[C@@H]8CO)O[C@@H]7CO)O[C@@H]6CO)O[C@@H]5CO)O[C@@H]4CO)O[C@@H]3CO` [gamma-cyclodextrin], in “physchem” (water), the concentration in solution (solubility) came to 150 mM (≈ 195 mg/mL).
`Cc1ccc(S(=O)(=O)O)cc1.Nc1[nH]ncc1-c1cc(Cl)ccc1Oc1cc(F)c(S(=O)(=O)Nc2cscn2)cc1Cl` [tosylate salt, 4-[2-(5-amino-1 H-pyrazol-4-yl)-4-chlorophenoxy]-5-chloro-2-fluoro-N-(1,3-thiazol-4-yl)benzenesulfonamide tosylate]: in series [4], the aqueous solubility result was “good aqueous solubility”. The “stability with regard to disassociation” value in series [4] (compared with other salts) is reported as “greater stability”. For the same molecule, the chemical stability result in series [4] (in particular with regard to formulation and storage) is reported as “improved chemical stability over the free base”.
